Results taken from publication PMC12813973, “Consequences of Peptide Macrocyclization Revealed by Virus-Inspired β‑Hairpin Mimetics” (ACS Chemical Biology, 2025).
Read-outs that look alike come from different tables or passages of the source. *1 amine or outer side, *2 acyl side, *3 side chain or, on linkers, in order; H or OH if unused. Where a SMILES comes first, the peptide text is derived from it. Bridges are numbered along the chain shown (N, C = ends). [ ]: non-standard residue; d: D form. oXylylene = c1ccc(C[*:2])c(C[*:1])c1; βAla = NCCC(=O)O

Key:
STAT1 [1] = molecular target: T1, STAT1 (Homo sapiens, UniProt P42224); assay: Isothermal titration calorimetry (ITC) of peptide binding to STAT1
T1 construct: full-length STAT1 (Uniprot #P42224-1) was expressed in E. coli; His tag (pEXP-NHis vector) (N); made in house; host or cells: E. coli T7 Express
T1 sequence (P42224 1-750): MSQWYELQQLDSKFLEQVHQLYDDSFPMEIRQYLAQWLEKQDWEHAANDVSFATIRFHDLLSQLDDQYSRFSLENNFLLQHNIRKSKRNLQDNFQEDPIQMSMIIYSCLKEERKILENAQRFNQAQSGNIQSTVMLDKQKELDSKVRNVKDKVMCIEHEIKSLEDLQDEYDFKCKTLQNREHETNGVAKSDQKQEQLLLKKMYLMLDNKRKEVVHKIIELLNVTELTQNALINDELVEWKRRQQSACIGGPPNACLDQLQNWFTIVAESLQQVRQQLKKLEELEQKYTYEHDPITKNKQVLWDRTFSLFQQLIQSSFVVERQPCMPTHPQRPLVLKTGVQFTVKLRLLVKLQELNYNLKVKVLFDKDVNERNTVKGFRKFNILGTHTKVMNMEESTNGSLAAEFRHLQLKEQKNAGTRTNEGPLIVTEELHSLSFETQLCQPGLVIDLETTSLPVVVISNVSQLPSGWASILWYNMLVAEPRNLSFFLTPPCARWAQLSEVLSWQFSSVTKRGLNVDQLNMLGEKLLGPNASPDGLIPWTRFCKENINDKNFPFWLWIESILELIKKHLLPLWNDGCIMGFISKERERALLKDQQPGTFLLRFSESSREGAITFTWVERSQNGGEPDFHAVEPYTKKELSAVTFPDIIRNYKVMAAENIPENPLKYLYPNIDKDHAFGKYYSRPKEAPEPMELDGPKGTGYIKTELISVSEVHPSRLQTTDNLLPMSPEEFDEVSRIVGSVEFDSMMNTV
Method: To determine affinities and thermodynamic profiles of binding, we performed isothermal titration calorimetry (ITC) experiments for peptides 1, 2, 3, 4, 7, and 8 (Figures A,B and S1,S2, Table S1). […] The experiments were repeated in two different buffer systems, TBST (50 mM Tris pH 8.0, 300 mM NaCl, 0.01% Tween-20) and PBST ([…], 150 mM NaCl, 0.01% Tween-20), to account for possible buffer protonation enthalpy artifacts. […]
Isothermal titration calorimetry (ITC)
ITC experiments were performed using a PEAQ ITC instrument (Malvern Panalytical) in either TBST (50 mM Tris pH 8.0, 300 mM NaCl, 0.5 mM TCEP, 0.01% Tween -20) or PBST (10 mM sodium phosphate pH 7.4, 150 mM NaCl, 0.01% Tween -20) as reaction buffers. STAT1 protein was buffer -exchanged into reaction buffer supplemented with 2% DMSO on a NAP -5 deslating column (Cytiv a #17085301) and its concentration was adjusted to 10 or 20 μM.
Peptides were diluted in reaction buffer from DMSO stocks to a matching 2% DMSO concentration. Peptide concentrations were adjusted to approximately 100-200 μM. ITC experiments were performed with STAT1 in the cell and peptides in the syringe at 25°C, with 750 RPM stirring, DP = 4 μcal/sec. 18 injections of 2 μl were performed over a 50 min titration.
Thermogram integra tion and isotherm fitting were performed using the PEAQ ITC analysis software (Malvern Panalytical ). Isotherms were fitted using a 1:1 binding model. Due to challenges in determining peptide concentrations with high accuracy , protein concentrations and stoichiometry (N=1.0) were kept constant during isotherm fitting, whereas peptide concentrations were allowed to vary. Fixing a single reactant concentration during fitting is acceptable given the sufficiently high C -values and isotherm curvature observed in the […]
Offset subtraction was implemented to remove injection heats.

STAT1 [2] = molecular target: T1, STAT1; assay: Grating-coupled interferometry (GCI) waveRAPID kinetics, immobilised full-length STAT1; type: binding; details: for Kd: 20 mM HEPES pH 7.5, 300 mM NaCl, 0.01% Tween-20, 1:1 kinetic model, average of 2–4 technical replicates ± SD, SD; for kon at 0.5 µM: analyte 0.5 µM, read-out: ka
Source text: Understanding the molecular determinants of kinetic rate constants of binding (k a, k d) can aid the design of pharmacological probes with longer target engagement, which is beneficial for drug efficacy and decreased toxicity. , We characterized the binding kinetics of 018-derived macrocycles by using grating-coupled interferometry (GCI). We used waveRAPID, a regeneration-free kinetic binding assay that applies sequential analyte pulses of increasing duration onto a GCI biosensor surface with an immobilized target (Figures A, and S3,S4, Table S2).
(§1) Grating coupled interferometry (GCI)
(§2) GCI experiments were performed on a Creoptix WaveDELTA instrument (Malvern Panalytical). Full-length STAT1 or STAT3 were immobilised on a 4PCH chip (Malvern Panalytical #4PCH-03) to a density 2000-8000 pg/mm2 using EDC/NHS activation followed by amine coupling. Briefly, proteins (500 nM) were applied onto an activated chip in 10 mM MES pH 6.5, 20 mM NaCl, after which the chip surface was passivated with 1M ethanolamine, pH 8.0.
(§3) The kinetic measurements were perfor med using 20 mM HEPES pH 7.5, 300 mM NaCl, 0.01% Tween-20, 0.0005% DMSO as running buffer. Peptides were tested at 0.5 or 10 μM concentration using the waveRAPID kinetics experiment with the tight binder or intermediate binder mode, respectively.[4] Sensorgrams were fitted in the waveControl software (Malven Panalytical) using the 1:1 kinetic model. […]

STAT3 = molecular target: T2, STAT3 (Homo sapiens, UniProt P40763); assay: biochemical; type: binding
T2 construct: STAT3: the gene encoding full-length STAT3 was codon optimised for expression in; MBP (pEXP-MBP vector) (cleaved yes); His tag (IMAC capture, removed with the fusion by TEV and reverse IMAC) (cleaved yes); made in house; host or cells: E. coli T7 Express
T2 sequence (P40763 whole entry, species assumed, the tested form may be a part): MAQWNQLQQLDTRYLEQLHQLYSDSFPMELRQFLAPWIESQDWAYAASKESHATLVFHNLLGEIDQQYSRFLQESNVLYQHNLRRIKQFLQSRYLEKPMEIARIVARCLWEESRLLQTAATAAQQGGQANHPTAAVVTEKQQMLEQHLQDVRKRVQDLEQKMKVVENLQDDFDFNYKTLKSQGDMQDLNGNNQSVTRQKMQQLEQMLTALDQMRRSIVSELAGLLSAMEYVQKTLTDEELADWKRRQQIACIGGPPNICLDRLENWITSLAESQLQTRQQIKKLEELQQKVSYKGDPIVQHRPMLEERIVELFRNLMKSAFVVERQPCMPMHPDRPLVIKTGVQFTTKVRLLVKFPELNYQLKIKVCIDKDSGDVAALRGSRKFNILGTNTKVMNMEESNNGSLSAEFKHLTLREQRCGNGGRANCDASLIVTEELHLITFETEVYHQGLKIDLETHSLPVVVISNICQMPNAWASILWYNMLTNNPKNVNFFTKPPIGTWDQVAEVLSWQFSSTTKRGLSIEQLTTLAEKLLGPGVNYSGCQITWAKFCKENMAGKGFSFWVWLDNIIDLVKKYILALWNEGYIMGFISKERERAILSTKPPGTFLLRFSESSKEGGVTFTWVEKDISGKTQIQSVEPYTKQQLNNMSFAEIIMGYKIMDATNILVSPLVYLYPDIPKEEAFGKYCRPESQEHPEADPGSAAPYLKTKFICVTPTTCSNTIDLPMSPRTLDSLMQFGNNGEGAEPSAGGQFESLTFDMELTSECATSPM
Method: In such PPIs, the bulk of the binding energy contribution typically stems from backbone interactions, whereas binding specificity is fine-tuned by side-chain contacts. […] We evaluated the binding kinetics of peptides to full-length STAT3 using GCI.
as §1, §2, §3
GCI sensorgrams depicting RAPID kinetics measurements and fitted kinetic models for peptide binding to full-length STAT3 immobilised on a polycarboxylate hydrogel chip (4PCH). Peptides were applied at 0.5 or 10 μM concentration using the medium or tight binders pulse sequence. The peptides that show negligible Rmax values at 10 μM analyte concentration were classified as non-binding.
(1 picture or pasted object on this page, not shown here)

STAT1 [3] = molecular target: T1, STAT1; assay: Fluorescence polarization competition assay with fluorescein-labelled pIFNGR1 docking site peptide probe; type: binding; details: 10 nM fluorescein pIFNGR1 probe, STAT1 1.5 μM, 20 mM Tris pH 8.0, 300 mM NaCl, 0.1% Tween-20, 0.5 mM TCEP, 2.5% DMSO, room temperature; four parameter logistic fit; read-out: IC50 (FP competition, pIFNGR1 probe displacement)
[4] = PBST pH 7.4 (NaPi, 150 mM NaCl, 0.01% Tween-20), average of 2–3 technical replicates, read-out: KD (ITC, summary Fig 2B)
[5] = replicate 1 (first listed run, Table S2)
[6] = replicate 2 (second listed run, Table S2)
[7] = replicate 3 (third listed run, Table S2)
[8] = TBST pH 8.0, average of 2–3 technical replicates, read-out: KD (ITC, summary Fig 2B)

CC[C@H](C)[C@@H]1NC(=O)[C@H](Cc2ccccc2)NC(=O)[C@H](C(C)C)NC(=O)[C@H](CO)NC(=O)[C@H](Cc2c[nH]c3ccccc23)NC(=O)[C@H](CCSC)NC(=O)CCNC(=O)CCNC(=O)[C@H]([C@@H](C)O)NC(=O)[C@H](Cc2ccc(O)cc2)NC(=O)[C@H]([C@@H](C)O)NC(=O)[C@H](CCCCN)NC(=O)[C@H](CO)NC(=O)CNC(=O)[C@H](CCCCN)NC(=O)[C@H](CC(N)=O)NC(=O)[C@H](CO)NC(=O)CNC(=O)[C@H](CC(=O)O)NC(=O)[C@H](Cc2c[nH]cn2)NC(=O)CNC(=O)[C@H](Cc2c[nH]cn2)NC1=O [Peptide 2]
Kd (STAT1 [1]; [4]): 122 nM | Kd (STAT1 [1]; TBST (50 mM Tris pH 8.0, 300 mM NaCl, 0.01% Tween-20), 25°C, 1:1 model, average of three technical replicates ± SD (text and Fig 2A), SD, read-out: KD (ITC)): 330 ± 20 nM | Kd (STAT1 [2]): 8.9 ± 1.9 nM | kon at 0.5 µM (STAT1 [2]; [5]): 216000 M⁻¹ s⁻¹ | kon at 0.5 µM (STAT1 [2]; [6]): 213000 M⁻¹ s⁻¹ | kon at 0.5 µM (STAT1 [2]; [7]): 321000 M⁻¹ s⁻¹

CC[C@H](C)[C@@H]1NC(=O)[C@H](CS)NC(=O)[C@H](C(C)C)NC(=O)[C@H](CO)NC(=O)[C@H](Cc2c[nH]c3ccccc23)NC(=O)[C@H](CCSC)NC(=O)CCNC(=O)CCNC(=O)[C@H]([C@@H](C)O)NC(=O)[C@H](Cc2ccc(O)cc2)NC(=O)[C@H]([C@@H](C)O)NC(=O)[C@H](CCCCN)NC(=O)[C@H](CS)NC(=O)CNC(=O)[C@H](CCCCN)NC(=O)[C@H](CC(N)=O)NC(=O)[C@H](CO)NC(=O)CNC(=O)[C@H](CC(=O)O)NC(=O)[C@H](Cc2c[nH]cn2)NC(=O)CNC(=O)[C@H](Cc2c[nH]cn2)NC1=O [Peptide 3] (cyclo(CIHGHDGSNKGCKTYT[βAla][βAla]MWSV))
Kd (STAT1 [1]; [4]): 55 nM | Kd (STAT1 [1]; [8]): 145 nM | Kd (STAT1 [2]): 7.5 ± 0.5 nM | kon at 0.5 µM (STAT1 [2]; [5]): 261000 M⁻¹ s⁻¹ | kon at 0.5 µM (STAT1 [2]; [6]): 276000 M⁻¹ s⁻¹ | ka (STAT3): 83900 M⁻¹ s⁻¹ | Kd (STAT3; full-length STAT3 on 4PCH chip, average of technical replicates ± SD (Fig 3E), SD, read-out: STAT3 KD (GCI waveRAPID)): 9300 ± 453 nM | kon (STAT3; read-out: ka): 81000 M⁻¹ s⁻¹ | IC50 (STAT1 [3]): 1300 nM

CSCC[C@@H]1NC(=O)CCNC(=O)CCNC(=O)[C@H]([C@@H](C)O)NC(=O)[C@H](Cc2ccc(O)cc2)NC(=O)[C@H]([C@@H](C)O)NC(=O)[C@H](CCCCN)NC(=O)[C@H](CO)NC(=O)[C@H](CS)NC(=O)[C@H](CCCCN)NC(=O)[C@H](CC(N)=O)NC(=O)[C@H](CO)NC(=O)CNC(=O)[C@H](CC(=O)O)NC(=O)[C@H](Cc2c[nH]cn2)NC(=O)CNC(=O)[C@H](Cc2c[nH]cn2)NC(=O)[C@H](CS)NC(=O)[C@H](Cc2ccccc2)NC(=O)[C@H](C(C)C)NC(=O)[C@H](CO)NC(=O)[C@H](Cc2c[nH]c3ccccc23)NC1=O [Peptide 7] (cyclo(CHGHDGSNKCSKTYT[βAla][βAla]MWSVF))
Kd (STAT1 [1]; [4]): 114 nM | Kd (STAT1 [1]; [8]): 1930 nM | Kd (STAT1 [2]): 96.9 ± 4 nM | kon at 0.5 µM (STAT1 [2]; [5]): 129000 M⁻¹ s⁻¹ | kon at 0.5 µM (STAT1 [2]; [6]): 131000 M⁻¹ s⁻¹ | kon at 0.5 µM (STAT1 [2]; [7]): 137000 M⁻¹ s⁻¹

CSCC[C@@H]1NC(=O)CCNC(=O)CCNC(=O)[C@H]([C@@H](C)O)NC(=O)[C@H](Cc2ccc(O)cc2)NC(=O)[C@H]([C@@H](C)O)NC(=O)[C@H](CCCCN)NC(=O)[C@H](CO)NC(=O)[C@@H]2CSCc3ccccc3CSC[C@H](NC(=O)[C@H](Cc3ccccc3)NC(=O)[C@H](C(C)C)NC(=O)[C@H](CO)NC(=O)[C@H](Cc3c[nH]c4ccccc34)NC1=O)C(=O)N[C@@H](Cc1c[nH]cn1)C(=O)NCC(=O)N[C@@H](Cc1c[nH]cn1)C(=O)N[C@@H](CC(=O)O)C(=O)NCC(=O)N[C@@H](CO)C(=O)N[C@@H](CC(N)=O)C(=O)N[C@@H](CCCCN)C(=O)N2 [Peptide 8] (cyclo(CHGHDGSNKCSKTYT[βAla][βAla]MWSVF); linker 1-10 via oXylylene)
Kd (STAT1 [1]; [4]): 247 nM | Kd (STAT1 [1]; [8]): 436 nM | Kd (STAT1 [2]): 75.4 ± 0.8 nM | kon at 0.5 µM (STAT1 [2]; [5]): 87000 M⁻¹ s⁻¹ | kon at 0.5 µM (STAT1 [2]; [6]): 80000 M⁻¹ s⁻¹

CC[C@H](C)[C@@H]1NC(=O)[C@@H](NC(=O)[C@@H](NC(=O)[C@H](CO)NC(=O)[C@H](Cc2c[nH]c3ccccc23)NC(=O)[C@H](CCSC)NC(C)=O)C(C)C)CSCc2ccccc2CSC[C@@H](C(=O)N[C@@H](CCCCN)C(=O)N[C@H](C(=O)N[C@@H](Cc2ccc(O)cc2)C(=O)N[C@H](C(N)=O)[C@@H](C)O)[C@@H](C)O)NC(=O)CNC(=O)[C@H](CCCCN)NC(=O)[C@H](CC(N)=O)NC(=O)[C@H](CO)NC(=O)CNC(=O)[C@H](CC(=O)O)NC(=O)[C@H](Cc2c[nH]cn2)NC(=O)CNC(=O)[C@H](Cc2c[nH]cn2)NC1=O [Peptide 9] (Ac-MWSVCIHGHDGSNKGCKTYT-NH2; linker 5-16 via oXylylene)
Kd (STAT1 [2]): 1.5 ± 0.1 nM | kon at 0.5 µM (STAT1 [2]; [5]): 587000 M⁻¹ s⁻¹ | kon at 0.5 µM (STAT1 [2]; [6]): 570000 M⁻¹ s⁻¹ | kon at 0.5 µM (STAT1 [2]; [7]): 540000 M⁻¹ s⁻¹
